The source of these data is ChEMBL document CHEMBL1201862, “PubChem BioAssay data set” (2004).

Test systems include HT-29; T47D; MDA-N; SNB-75; EKVX; SK-MEL-28; SN12C; MOLT-4; KM12; NCI-H23; A549; SR; SK-MEL-2; SF-539; Malme-3M; HOP-92; MDA-MB-231; HL-60; CAKI-1.
Common to all, as to assay: NCI anticancer screen, dose series, 48 h

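1) Cells in 96-well plates. 2) Compound, 48 h, 5 concentrations. 3) Linear interpolation between surrounding doses. 4) Unreached endpoint = highest concentration. GI50 marks 50% less growth.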 Activity calls are given as the source filed them. Rule as the data show it: active = GI50 up to about 1.1 µM and inactive = higher.

As to `CCC1C(c2cccc(OC)c2O)c2cc3c(cc2OC1N1CCCC1)OCO3` (stereo not given), the GI50 in the test on HT-29 was 16.5 µM (inactive); in the test on T47D, 16.2 µM (inactive); with MDA-N, 3.24 µM (inactive); in the test with SNB-75 it was 17.7 µM (inactive); with EKVX, 22.8 µM (inactive); in the test on SK-MEL-28 it was 16.3 µM (inactive). Also, the GI50 in the test on SN12C was 18.1 µM (inactive); in the test with MOLT-4, 12.8 µM (inactive); in the test with KM12, 12 µM (inactive); in the test with NCI-H23, 26.4 µM (inactive); in the test with A549, 17.4 µM (inactive); in the test with SR, 14.9 µM (inactive). Further, the results for the GI50 with SK-MEL-2 and in the test with SF-539 were 17.1 µM (inactive) and 12.2 µM (inactive), respectively.

`CC(=O)NCC1OC2COC(c3ccccc3)OC2C2N=C(c3ccccc3)OC12` (stereo not given): the GI50 in the test on HT-29 is 34.8 µM (inactive); with T47D, 19.1 µM (inactive); with MDA-N, 39.1 µM (inactive); in the test on SNB-75, 38.2 µM (inactive); in the test on EKVX, 38 µM (inactive); in the test with Malme-3M, 58.7 µM (inactive). In addition, the GI50 was 59.6 µM (inactive) with SK-MEL-28; > 100 µM (inactive) in the test with SN12C; 61.1 µM (inactive) in the test on HOP-92; 43.2 µM (inactive) in the test with MOLT-4; 40.4 µM (inactive) in the test with KM12; > 100 µM (inactive) with NCI-H23. The GI50 in the test with A549 was 37.8 µM (inactive); in the test on MDA-MB-231 it was > 100 µM (inactive); in the test with SK-MEL-2 it was 53.6 µM (inactive); in the test with HL-60, 26.7 µM (inactive); with SF-539 it was > 100 µM (inactive); in the test with CAKI-1, > 100 µM (inactive).

As to `CSc1nc2c(c(N(C)C)n1)C(O)n1c(nc3ccccc31)S2` (stereo not given), the GI50 is > 100 µM (inactive) in the test on HT-29; 38.1 µM (inactive) in the test on T47D; > 55.1 µM (inactive) in the test on MDA-N; 17.1 µM (inactive) in the test with SNB-75; > 100 µM (inactive) with EKVX; 28.6 µM (inactive) with Malme-3M. Moreover, the GI50 was 46.2 µM (inactive) in the test with SK-MEL-28; > 100 µM (inactive) in the test on SN12C; 43.3 µM (inactive) in the test on HOP-92; > 100 µM (inactive) in the test on MOLT-4; > 100 µM (inactive) in the test with KM12; 31.3 µM (inactive) with NCI-H23. The GI50 was > 71.9 µM (inactive) in the test on A549; 28 µM (inactive) with MDA-MB-231; > 100 µM (inactive) with SK-MEL-2; 15.2 µM (inactive) with SF-539; > 58.5 µM (inactive) in the test on CAKI-1.

Consider `CC(C)(CO)N1CCN(C(S)=Nc2ccccc2)CC1`, for which the GI50 with HT-29, with T47D, in the test on MDA-N, in the test with SNB-75, in the test with EKVX and with Malme-3M was > 100 µM (inactive) each time. Further, the GI50 in the test with SK-MEL-28, with SN12C, with HOP-92, in the test with KM12, in the test with NCI-H23 and with A549 was > 100 µM (inactive) throughout. The GI50 in the test on MDA-MB-231, in the test on SK-MEL-2, in the test on SF-539 and in the test with CAKI-1 was > 100 µM (inactive) throughout.

With `C/C(=C\C(=N\NC(=N)N)c1ccccc1)c1ccccc1`, the GI50 in the test with HT-29 was 0.354 µM (active); in the test on T47D, 0.12 µM (active); in the test with MDA-N, 0.973 µM (active); with SNB-75, 4.28 µM (inactive); in the test with Malme-3M, 1.16 µM (inactive); in the test on SK-MEL-28, 2.58 µM (inactive). Also, the GI50 was 0.454 µM (active) with SN12C; 0.716 µM (active) in the test on HOP-92; 0.261 µM (active) in the test with MOLT-4; 1.17 µM (inactive) in the test on KM12; 0.354 µM (active) in the test on NCI-H23; 0.577 µM (active) in the test with A549. Moreover, the values for the GI50 in the test with SR, with SF-539 and in the test on CAKI-1 were 2.18 µM (inactive), 0.432 µM (active) and 0.149 µM (active), respectively.

As for `CCOC(=O)C(C)c1nc2ccc(C(F)(F)F)cc2[nH]c1=O` (stereo not given), the GI50 with HT-29 was 51.6 µM (inactive); with T47D, 23.8 µM (inactive); in the test on MDA-N it was 64.1 µM (inactive); with SNB-75, 46.6 µM (inactive); in the test with EKVX it was 43.1 µM (inactive); with Malme-3M it was 97.7 µM (inactive). Also, the GI50 in the test with SK-MEL-28 was > 100 µM (inactive); in the test on SN12C, > 100 µM (inactive); with HOP-92, 43.9 µM (inactive); in the test on MOLT-4, 50.2 µM (inactive); in the test on KM12, 71.9 µM (inactive); in the test on NCI-H23, 49.9 µM (inactive). Also, the GI50 was 73.5 µM (inactive) in the test on A549; 77.1 µM (inactive) in the test with MDA-MB-231; > 100 µM (inactive) with SK-MEL-2; 44.8 µM (inactive) in the test with HL-60; > 100 µM (inactive) in the test with SF-539; > 10 µM (inactive) with CAKI-1.

Regarding `N#Cc1c(O)c2ccccc2[nH]c1=O`, the GI50 with HT-29, in the test with T47D, in the test with MDA-N, in the test on SNB-75, in the test on EKVX and in the test on Malme-3M was > 100 µM (inactive) throughout. Besides, the GI50 in the test with SK-MEL-28, in the test with SN12C, in the test with HOP-92, in the test with MOLT-4, in the test with KM12 and with NCI-H23 was > 100 µM (inactive) each time. Further, the GI50 in the test with A549, with MDA-MB-231, with SK-MEL-2, in the test with HL-60, in the test with SF-539 and in the test on CAKI-1 was > 100 µM (inactive) each time.

Take `CC1=CC2(O)OC3(CC2=C(C)C)C(C)CCC13` (stereo not given): the GI50 with HT-29 was > 100 µM (inactive); with T47D, > 100 µM (inactive); in the test on MDA-N, > 100 µM (inactive); in the test with SNB-75, 58.5 µM (inactive); with EKVX, > 100 µM (inactive); in the test on Malme-3M it was > 100 µM (inactive). Moreover, the GI50 with SN12C, with HOP-92, with MOLT-4, in the test on KM12, in the test with NCI-H23 and with A549 was > 100 µM (inactive) throughout. In addition, the GI50 in the test with MDA-MB-231, in the test on SK-MEL-2, with HL-60, with SF-539 and in the test on CAKI-1 was > 100 µM (inactive) throughout.

As for `NC(=S)NS(=O)(=O)c1ccc(Cl)cc1`, the GI50 in the test on HT-29 was > 100 µM (inactive); in the test on T47D it was > 100 µM (inactive); with MDA-N, > 100 µM (inactive); in the test on SNB-75, > 100 µM (inactive); in the test with EKVX, 83.2 µM (inactive); in the test on Malme-3M, > 100 µM (inactive). For the same molecule, the GI50 with SK-MEL-28, in the test on SN12C, with MOLT-4, with KM12, in the test on NCI-H23 and in the test with A549 was > 100 µM (inactive) each time. For the same molecule, the GI50 in the test on MDA-MB-231, in the test on SK-MEL-2, in the test with HL-60, in the test on SF-539 and with CAKI-1 was > 100 µM (inactive) throughout.
